Source: patent publication US8609608B2, “Antimicrobial peptides” (C3 Jian, Inc., priority 2007, dated 2013)
Where no end group is shown, it is not given here.

Experiments:
S. mitis ATCC 903 = assay type: cell-based, Streptococcus mitis
Experimental: (§1) S. mutans clinical isolates UA140 (32), UA159 (1), T8 (33), ATCC 25175, GS5 (Kuramitsu and Ingersoll (1977) Infect Immun., 17: 330-337), and all gram-positive strains listed below (see Table 9) were grown under anaerobic conditions in brain heart infusion or Todd-Hewitt (TH) broth (Difco) overnight at 37° C. prior to use (Eckert et al. (2006) Antimicrob. Agents Chemother. 50: 3651-3657). Veillonella atypica PK1910 was grown in Veillonella medium (Egland et al. (2004) Proc. Natl. Acad. Sci., USA, 101: 16917-16922). All strains were grown in an anaerobic atmosphere of 80% N2, 10% CO2, and 10% H2.
(§2) Antibacterial growth inhibition assays were performed using sterile 96-well plates in a final volume of 100 μl, TH or Veillonella medium as described previously (Qi et al. (2005) FEMS Microbial Lett. 251: 321-326). Briefly, bacterial cells were grown overnight to an optical density at 600 nm of 0.75 to 0.8 (corresponding to 1×10^8 CFU/ml) and then diluted to 1×10^5 CFU/ml in broth and aliquoted onto plates. An appropriate volume of peptide stock solution (5 to 20 mg/ml, in water or methanol, depending on solubility) was then added to the first column of the plate to give 500 μg/ml or 512 μg/ml, followed by serial 1:2 dilutions across the plate to give wells containing peptides ranging from 500 to 1.95 μg/ml or 512 to 2 μg/ml. Methanol alone was also added to control for the effects of the solvent. The plates were then incubated at 37° C. under anaerobic conditions for 16 to 20 h without shaking, and the MIC was determined as the concentration of peptide present in the last clear well after visual inspection. Up to 5% (vol/vol) methanol was found not to be antimicrobial (data not shown). MICs were determined in triplicate for all bacteria.

L. casei ATCC 4646 = assay type: cell-based, Lactobacillus casei
Experimental: as §1, §2

S. sanguinis NY101 = assay type: cell-based, Streptococcus sanguinis
Experimental: as §1, §2

[1] = test system: clinical isolates of S. mutans; assay type: cell-based, Streptococcus mutans; conditions: for MIC / MIC (fusion library peptides): clinical isolates of
Experimental: as §1, §2

V. atypica PK1910 = assay type: cell-based, Veillonella atypica
Experimental: as §1, §2

S. gordonii Challis DL1 = assay type: cell-based, Streptococcus gordonii
Experimental: as §1, §2

With RWRWRWF-NH2 [Peptide 2C-4, RWRWRWF*] the “MIC S. mitis ATCC 903” value (S. mitis ATCC 903) was 32 µg/mL, the “MIC L. casei ATCC 4646” value (L. casei ATCC 4646) was 32 µg/mL and the “MIC S. sanguinis NY101” value (S. sanguinis NY101) was 32 µg/mL. The MIC [1] was 4 to 8 µg/mL, the “MIC V. atypica PK1910” value (V. atypica PK1910) was 64 µg/mL and the “MIC S. gordonii Challis DL1” value (S. gordonii Challis DL1) was 32 µg/mL.

In the case of FHYFWHWFHRF [AA-6, FHYFWHWFHRF], the “MIC pH 4.9” value (S. mutans) is reported as greater than 50 μM and the “MIC pH 7.4” value (S. mutans) is reported as 125 μM.

For “IKQLLHFFQRFGGGRWRWRWF-NH2 [FBRW-15, IKQLLHFFQRF-GGG-RWRWRWF*]”, the “MIC S. mitis ATCC 903” value (S. mitis ATCC 903) was 64 µg/mL, the “MIC L. casei ATCC 4646” value (L. casei ATCC 4646) was 16 µg/mL and the “MIC S. sanguinis NY101” value (S. sanguinis NY101) was 16 µg/mL. For the same substance, the “MIC (fusion library peptides)” value [1] was 4 to 16 µg/mL, the “MIC V. atypica PK1910” value (V. atypica PK1910) was 8 µg/mL and the “MIC S. gordonii Challis DL1” value (S. gordonii Challis DL1) was 32 µg/mL.

In the case of “FKKFWKWFRRF-NH2 [Peptide B-33, FKKFWKWFRRF*]”, the “MIC S. mitis ATCC 903” value (S. mitis ATCC 903) is reported as 32 µg/mL, the “MIC L. casei ATCC 4646” value (L. casei ATCC 4646) is reported as 32 µg/mL and the “MIC S. sanguinis NY101” value (S. sanguinis NY101) is reported as 32 µg/mL. The MIC [1] was 8 to 24 µg/mL, the “MIC V. atypica PK1910” value (V. atypica PK1910) was 16 µg/mL and the “MIC S. gordonii Challis DL1” value (S. gordonii Challis DL1) was 32 µg/mL.

For “IKQLLHFFQRF-NH2 [Peptide B-38, IKQLLHFFQRF*]”, the “MIC S. mitis ATCC 903” value (S. mitis ATCC 903) was 64 µg/mL, the “MIC L. casei ATCC 4646” value (L. casei ATCC 4646) was 32 µg/mL and the “MIC S. sanguinis NY101” value (S. sanguinis NY101) was 64 µg/mL. For the same substance, the “activity against S. mutans by MIC, in words” value [1] was “active but to a lesser degree than B-33 or B-34”, the MIC [1] was 24 µg/mL and the “MIC V. atypica PK1910” value (V. atypica PK1910) was 64 µg/mL. For the same substance, the “MIC S. gordonii Challis DL1” value (S. gordonii Challis DL1) was 32 µg/mL.

“RWRRLLKKLHHLLH-NH2 [α-11, RWRRLLKKLHHLLH*]” was tested, and the “MIC S. mitis ATCC 903” value (S. mitis ATCC 903) was 32 µg/mL, the “MIC L. casei ATCC 4646” value (L. casei ATCC 4646) was 16 µg/mL and the “MIC S. sanguinis NY101” value (S. sanguinis NY101) was 16 µg/mL. For the same substance, the MIC [1] was 8 µg/mL, the “MIC V. atypica PK1910” value (V. atypica PK1910) was 4 µg/mL and the “MIC S. gordonii Challis DL1” value (S. gordonii Challis DL1) was 16 µg/mL.

With “RWRRLLKKLHHLLHGGGFKKFWKWFRRF-NH2 [FBα-20, RWRRLLKKLHHLLH-GGG-FKKFWKWFRRF*]” the “MIC S. mitis ATCC 903” value (S. mitis ATCC 903) was 32 µg/mL, the “MIC L. casei ATCC 4646” value (L. casei ATCC 4646) was 8 µg/mL and the “MIC S. sanguinis NY101” value (S. sanguinis NY101) was 16 µg/mL. For the same substance, the “MIC (fusion library peptides)” value [1] was 4 to 8 µg/mL, the “MIC V. atypica PK1910” value (V. atypica PK1910) was 8 µg/mL and the “MIC S. gordonii Challis DL1” value (S. gordonii Challis DL1) was 16 µg/mL.

In the case of “RWRWRWFGGGLKRFLKWFKRF-NH2 [FBRW-24, RWRWRWF-GGG-LKRFLKWFKRF*]”, the “MIC S. mitis ATCC 903” value (S. mitis ATCC 903) is reported as 64 µg/mL, the “MIC L. casei ATCC 4646” value (L. casei ATCC 4646) is reported as 8 µg/mL and the “MIC S. sanguinis NY101” value (S. sanguinis NY101) is reported as 16 µg/mL. For the same substance, the “MIC (fusion library peptides)” value [1] was 8 µg/mL, the “MIC V. atypica PK1910” value (V. atypica PK1910) was 16 µg/mL and the “MIC S. gordonii Challis DL1” value (S. gordonii Challis DL1) was 32 µg/mL.

In the case of KLLKGATFHFFHHFFHFFHHF [AA-3], the “MIC pH 4.9” value (S. mutans) is reported as 6.25 μM and the “MIC pH 7.4” value (S. mutans) is reported as greater than 125 μM.

For “LKRFLKWFKRFGGGRWRWRWF-NH2 [FBRW-16, LKRFLKWFKRF-GGG-RWRWRWF*]”, the “MIC S. mitis ATCC 903” value (S. mitis ATCC 903) was 64 µg/mL, the “MIC L. casei ATCC 4646” value (L. casei ATCC 4646) was 16 µg/mL and the “MIC S. sanguinis NY101” value (S. sanguinis NY101) was 16 µg/mL. For the same substance, the “MIC (fusion library peptides)” value [1] was 4 to 16 µg/mL, the “MIC V. atypica PK1910” value (V. atypica PK1910) was 8 µg/mL and the “MIC S. gordonii Challis DL1” value (S. gordonii Challis DL1) was 64 µg/mL.

“LKRFLKWFKRF-NH2 [Peptide B-34, LKRFLKWFKRF*]” was tested, and the “MIC S. mitis ATCC 903” value (S. mitis ATCC 903) was 64 µg/mL, the “MIC L. casei ATCC 4646” value (L. casei ATCC 4646) was 16 µg/mL and the “MIC S. sanguinis NY101” value (S. sanguinis NY101) was 16 µg/mL. For the same substance, the MIC [1] was 8 to 24 µg/mL, the “MIC V. atypica PK1910” value (V. atypica PK1910) was 32 µg/mL and the “MIC S. gordonii Challis DL1” value (S. gordonii Challis DL1) was 32 µg/mL.

For “RWRWRWFGGGFKKFWKWFRRF-NH2 [FBRW-22, RWRWRWF-GGG-FKKFWKWFRRF*]”, the “MIC S. mitis ATCC 903” value (S. mitis ATCC 903) was 64 µg/mL, the “MIC L. casei ATCC 4646” value (L. casei ATCC 4646) was 8 µg/mL and the “MIC S. sanguinis NY101” value (S. sanguinis NY101) was 8 µg/mL. The “MIC (fusion library peptides)” value [1] was 4 to 8 µg/mL, the “MIC V. atypica PK1910” value (V. atypica PK1910) was 8 µg/mL and the “MIC S. gordonii Challis DL1” value (S. gordonii Challis DL1) was 16 µg/mL.

“FHFFHHFFHFFHHFKLLK [AA-5, FHFFHHFFHFFHHFKLLK]” was tested, and the “MIC pH 4.9” value (S. mutans) was 28.125 μM and the “MIC pH 7.4” value (S. mutans) was greater than 125 μM.

In the case of LYHFLHWFQRF [AA-7, LYHFLHWFQRF], the “MIC pH 4.9” value (S. mutans) is reported as greater than 50 μM and the “MIC pH 7.4” value (S. mutans) is reported as 125 μM.

“HHFFHHFHHFFHHF-NH2 [AA-1, HHFFHHFHHFFHHF*]” was tested, and the “MIC pH 4.9” value (S. mutans) was 12.5 μM and the “MIC pH 7.4” value (S. mutans) was greater than 125 μM.

“FKKFWKWFRRFGGGRWRWRWF-NH2 [FBRW-14, FKKFWKWFRRF-GGG-RWRWRWF*]” was tested, and the “MIC S. mitis ATCC 903” value (S. mitis ATCC 903) was 64 µg/mL, the “MIC L. casei ATCC 4646” value (L. casei ATCC 4646) was 8 µg/mL and the “MIC S. sanguinis NY101” value (S. sanguinis NY101) was 16 µg/mL. For the same substance, the “MIC (fusion library peptides)” value [1] was 4 to 16 µg/mL, the “MIC V. atypica PK1910” value (V. atypica PK1910) was 8 µg/mL and the “MIC S. gordonii Challis DL1” value (S. gordonii Challis DL1) was 32 µg/mL.
